# In patent US5776944A, “7-(4-aminomethyl-3-methyloxyiminopyrroplidin-1-yl)-1-cyclopropyl-6-flu oro-4-oxo-1,4-dihydro-1,8-naphthyridine-3-carboxylic acid and the process for the preparation thereof” (LG Chemical Ltd., priority 1994, dated 1998):
# Where two headings read alike, the source gives them in different places.
# Key:
# [1] = tested on: Staphylococcus aureus 6538p; assay: In vitro antibacterial activity (MIC, agar dilution), Biological Example 1; assay type: cell-based; settings: 18 h, Table 25, read-out: Minimum Inhibitory Concentration
# [2] = tested on: Staphylococcus aureus giorgio; assay: as above; assay type: cell-based; settings: 18 h, Table 25, read-out: Minimum Inhibitory Concentration
# Staphylococcus aureus 77 [3] = assay: as above; assay type: cell-based; settings: 18 h; Staphylococcus aureus 77, Table 25; read-out: Minimum Inhibitory Concentration
# [4] = tested on: Staphylococcus aureus 241; assay: as above; assay type: cell-based; settings: 18 h; Staphylococcus aureus 241, Table 25; read-out: Minimum Inhibitory Concentration
# [5] = tested on: Staphylococcus epidermidis 887E; assay: as above; assay type: cell-based; settings: 18 h, Table 25, read-out: Minimum Inhibitory Concentration
# [6] = tested on: Staphylococcus epidermidis 178; assay: as above; assay type: cell-based; settings: 18 h; Staphylococcus epidermidis 178, Table 25; read-out: Minimum Inhibitory Concentration
# [7] = tested on: Streptococcus faecalis 29212; assay: as above; assay type: cell-based; settings: Enterococcus faecalis, 18 h; Streptococcus faecalis 29212, Table 25; read-out: Minimum Inhibitory Concentration
# Bacillus subtilis 6633 [8] = assay: as above; assay type: cell-based; settings: 18 h; Bacillus subtilis 6633, Table 25; read-out: Minimum Inhibitory Concentration
# Micrococcus luteus 9341 [9] = assay: as above; assay type: cell-based; settings: 18 h; Micrococcus luteus 9341, Table 25; read-out: Minimum Inhibitory Concentration
# Escherichia coli 10536 [10] = assay: as above; assay type: cell-based; settings: 18 h; Escherichia coli 10536, Table 25; read-out: Minimum Inhibitory Concentration
# Escherichia coli 3190Y [11] = assay: as above; assay type: cell-based; settings: 18 h, Table 25, read-out: Minimum Inhibitory Concentration
# Escherichia coli 851E [12] = assay: as above; assay type: cell-based; settings: 18 h, Table 25, read-out: Minimum Inhibitory Concentration
# [13] = tested on: Escherichia coli TEM3 3455E; assay: microbe, parasite or virus in culture; assay type: cell-based; settings: TEM33455E, 18 h, read-out: Minimum Inhibitory Concentration
# [14] = tested on: Escherichia coli TEM5 3739E; assay: microbe, parasite or virus in culture; assay type: cell-based; settings: TEM53739E, 18 h, read-out: Minimum Inhibitory Concentration
# [15] = tested on: Escherichia coli TEM9 2639E; assay: microbe, parasite or virus in culture; assay type: cell-based; settings: TEM92639E, 18 h, read-out: Minimum Inhibitory Concentration
# [16] = tested on: Pseudomonas aeruginosa 1912E; assay: In vitro antibacterial activity (MIC, agar dilution), Biological Example 1; assay type: cell-based; settings: 18 h; Pseudomonas aeruginosa 1912E, Table 25; read-out: Minimum Inhibitory Concentration
# [17] = tested on: Pseudomonas aeruginosa 10145; assay: as above; assay type: cell-based; settings: 18 h; Pseudomonas aeruginosa 10145, Table 25; read-out: Minimum Inhibitory Concentration
# [18] = tested on: Acinetobacter calcoaceticus 15473; assay: as above; assay type: cell-based; settings: 18 h; Acinetobacter calcoaceticus 15473, Table 25; read-out: Minimum Inhibitory Concentration
# [19] = tested on: Citrobacter diversus 2046E; assay: as above; assay type: cell-based; settings: Citrobacter koseri, 18 h, Table 25, read-out: Minimum Inhibitory Concentration
# [20] = tested on: Enterobacter cloacae 1194E; assay: microbe, parasite or virus in culture; assay type: cell-based; settings: 18 h, read-out: Minimum Inhibitory Concentration
# Enterobacter cloacae P99 [21] = assay: microbe, parasite or virus in culture; assay type: cell-based; settings: P99, 18 h, read-out: Minimum Inhibitory Concentration
# [22] = tested on: Klebsiella aerogenes 1976E; assay: In vitro antibacterial activity (MIC, agar dilution), Biological Example 1; assay type: cell-based; settings: 18 h, Table 25, read-out: Minimum Inhibitory Concentration
# [23] = tested on: Klebsiella aerogenes 1082E; assay: as above; assay type: cell-based; settings: 18 h, Table 25, read-out: Minimum Inhibitory Concentration
# [24] = tested on: Salmonella typimurium 14028; assay: as above; assay type: cell-based; settings: 18 h; Salmonella typimurium 14028, Table 25; read-out: Minimum Inhibitory Concentration
# Acute oral toxicity test = settings: in vivo, ICR male mouse, 7 days
# Procedure: To determine the acute oral toxicity of the compounds prepared in Examples 1 and 34, the test solution containing the compounds in various concentrations were orally administered to ICR male mouse in an amount of 10 ml per kg of body weight. For 7 days after administration, the lethality and the conditions of test mouse were observed, from which LD50 value (mg/kg), was calculated.
# [25] = tested on: Staphylococcus aureus 6538p; assay: In vitro antibacterial activity (MIC, agar medium dilution), Biological Example 4; assay type: cell-based; settings: 18 h, Table 31, read-out: Minimum Inhibitory Concentration: MIC
# [26] = tested on: Staphylococcus aureus giorgio; assay: as above; assay type: cell-based; settings: 18 h, Table 31, read-out: Minimum Inhibitory Concentration: MIC
# Staphylococcus aureus 77 [27] = assay: as above; assay type: cell-based; settings: 18 h; Staphylococcus aureus 77, Table 31; read-out: Minimum Inhibitory Concentration: MIC
# [28] = tested on: Staphylococcus aureus 241; assay: as above; assay type: cell-based; settings: Staphylococcus aureus, 241, 18 h, Staphylococcus aureus 241, Table 31; read-out: Minimum Inhibitory Concentration: MIC
# [29] = tested on: Staphylococcus epidermidis 887E; assay: as above; assay type: cell-based; settings: 18 h, Staphylococcus epidermidis 887E, Table 31, read-out: Minimum Inhibitory Concentration: MIC
# [30] = tested on: Staphylococcus epidermidis 178; assay: as above; assay type: cell-based; settings: 18 h; Staphylococcus epidermidis 178, Table 31; read-out: Minimum Inhibitory Concentration: MIC
# [31] = tested on: Streptococcus faecalis 29212; assay: as above; assay type: cell-based; settings: Enterococcus faecalis, 29212, 18 h, Streptococcus faecalis 29212, Table 31; read-out: Minimum Inhibitory Concentration: MIC
# Bacillus subtilis 6633 [32] = assay: as above; assay type: cell-based; settings: 18 h; Bacillus subtilis 6633, Table 31; read-out: Minimum Inhibitory Concentration: MIC
# Micrococcus luteus 9341 [33] = assay: as above; assay type: cell-based; settings: 18 h; Micrococcus luteus 9341, Table 31; read-out: Minimum Inhibitory Concentration: MIC
# Escherichia coli 10536 [34] = assay: as above; assay type: cell-based; settings: Escherichia coli, 10536, 18 h, Escherichia coli 10536, Table 31; read-out: Minimum Inhibitory Concentration: MIC
# Escherichia coli 3190Y [35] = assay: as above; assay type: cell-based; settings: 18 h, Table 31, read-out: Minimum Inhibitory Concentration: MIC
# Escherichia coli 851E [36] = assay: as above; assay type: cell-based; settings: 18 h, Table 31, read-out: Minimum Inhibitory Concentration: MIC
# [37] = tested on: Escherichia coli TEM3 3455E; assay: as above; assay type: cell-based; settings: TEM33455E, 18 h, read-out: Minimum Inhibitory Concentration: MIC, Escherichia coli TEM3 3455E, Table 31
# [38] = tested on: Escherichia coli TEM5 3739E; assay: as above; assay type: cell-based; settings: TEM53739E, 18 h, read-out: Minimum Inhibitory Concentration: MIC
# [39] = tested on: Escherichia coli TEM9 2639E; assay: as above; assay type: cell-based; settings: TEM92639E, 18 h, read-out: Minimum Inhibitory Concentration: MIC
# [40] = tested on: Pseudomonas aeruginosa 1912E; assay: as above; assay type: cell-based; settings: 18 h, Table 31, read-out: Minimum Inhibitory Concentration: MIC
# [41] = tested on: Pseudomonas aeruginosa 10145; assay: as above; assay type: cell-based; settings: Pseudomonas aeruginosa, 10145, 18 h, Pseudomonas aeruginosa 10145, Table 31; read-out: Minimum Inhibitory Concentration: MIC
# [42] = tested on: Pseudomonas aeruginosa 6065Y; assay: as above; assay type: cell-based; settings: 18 h, Table 31, read-out: Minimum Inhibitory Concentration: MIC
# Procedure: (§1) In order to determine the antibacterial activitiers of the E- and Z-isomner of the compound 180 which were separated in Example 203, and of 7- (4-aminomethyl-3-methyloxylminopyrrolidin-1-yl)-1-cyclopropyl-6-fluoro-4-oxo-1,4-dihydro-1,8-naphthyridine-3-carboxylic acid methanesulfonate prepared in Example 204, in vitro antibacterial activities of them were measured using agar medium dilution method. The results were as described in the following Tables 31 and 32.
# Seratis marsecence 1826E = assay: as above; assay type: cell-based; settings: 18 h, Table 31, read-out: Minimum Inhibitory Concentration: MIC
# Procedure: as §1
# [43] = tested on: Acinetobacter calcoaceticus 15473; assay: as above; assay type: cell-based; settings: 18 h; Acinetobacter calcoaceticus 15473, Table 31; read-out: Minimum Inhibitory Concentration: MIC
# [44] = tested on: Citrobacter diversus 2046E; assay: as above; assay type: cell-based; settings: Citrobacter koseri, 18 h, Table 31, read-out: Minimum Inhibitory Concentration: MIC
# [45] = tested on: Enterobacter cloacae 1194E; assay: microbe, parasite or virus in culture; assay type: cell-based; settings: 18 h, read-out: Minimum Inhibitory Concentration: MIC
# Enterobacter cloacae P99 [46] = assay: microbe, parasite or virus in culture; assay type: cell-based; settings: P99, 18 h, read-out: Minimum Inhibitory Concentration: MIC
# [47] = tested on: Klebsiella aerogenes 1976E; assay: In vitro antibacterial activity (MIC, agar medium dilution), Biological Example 4; assay type: cell-based; settings: 18 h, Table 31, read-out: Minimum Inhibitory Concentration: MIC
# [48] = tested on: Klebsiella aerogenes 1082E; assay: as above; assay type: cell-based; settings: 18 h, Table 31, read-out: Minimum Inhibitory Concentration: MIC
# Proteus vulgaris 6059 = assay: as above; assay type: cell-based; settings: 18 h; Proteus vulgaris 6059, Table 31; read-out: Minimum Inhibitory Concentration: MIC
# [49] = tested on: Salmonella thypimurium 14028; assay: as above; assay type: cell-based; settings: 18 h; Salmonella thypimurium 14028, Table 31; read-out: Minimum Inhibitory Concentration: MIC
# test strains = assay: In vitro antibacterial activity, overall finding, Biological Example 4; assay type: cell-based; settings: Tables 31 and 32
# Procedure: as §1
# [50] = phosphate buffered solution
structure (smiles),measurement,setting,value
"NCC1CN(c2nc3c(cc2F)c(=O)c(C(=O)O)cn3C2CC2)CC1=NOCc1ccccc1 (centres unmarked) [Example 1, 7-(4-aminomethyl-3-benzyloxyimino-pyrrolidin-1-yl)-1-cyclopropyl-6-fluoro-1,4-dihydro-4-oxo-1,8-naphthyridine-3-carboxylic acid]",MIC,[1],≤ 0.008 µg/mL
same,MIC,[2],≤ 0.008 µg/mL
same,MIC,Staphylococcus aureus 77 [3],≤ 0.008 µg/mL
same,MIC,[4],2 µg/mL
same,MIC,[5],≤ 0.008 µg/mL
same,MIC,[6],2 µg/mL
same,MIC,[7],0.031 µg/mL
same,MIC,Bacillus subtilis 6633 [8],≤ 0.008 µg/mL
same,MIC,Micrococcus luteus 9341 [9],0.063 µg/mL
same,MIC,Escherichia coli 10536 [10],≤ 0.008 µg/mL
same,MIC,Escherichia coli 3190Y [11],≤ 0.008 µg/mL
same,MIC,Escherichia coli 851E [12],0.016 µg/mL
same,MIC,[13],0.25 µg/mL
same,MIC,[14],0.063 µg/mL
same,MIC,[15],0.063 µg/mL
same,MIC,[16],1 µg/mL
same,MIC,[17],2 µg/mL
same,MIC,[18],≤ 0.008 µg/mL
same,MIC,[19],0.063 µg/mL
same,MIC,[20],0.031 µg/mL
same,MIC,Enterobacter cloacae P99 [21],≤ 0.008 µg/mL
same,MIC,[22],0.25 µg/mL
same,MIC,[23],0.063 µg/mL
same,MIC,[24],0.13 µg/mL
same,LD50 at 168 h,Acute oral toxicity test,> 3000 mg/kg
CO/N=C1\CN(c2nc3c(cc2F)c(=O)c(C(=O)O)cn3C2CC2)CC1CN (stereo not drawn) [Z-isomer],MIC,[25],≤ 0.008 µg/mL
same,MIC,[26],≤ 0.008 µg/mL
same,MIC,Staphylococcus aureus 77 [27],0.031 µg/mL
same,MIC,[28],4 µg/mL
same,MIC,[29],≤ 0.008 µg/mL
same,MIC,[30],4 µg/mL
same,MIC,[31],0.063 µg/mL
same,MIC,Bacillus subtilis 6633 [32],≤ 0.008 µg/mL
same,MIC,Micrococcus luteus 9341 [33],0.13 µg/mL
same,MIC,Escherichia coli 10536 [34],≤ 0.008 µg/mL
same,MIC,Escherichia coli 3190Y [35],≤ 0.008 µg/mL
same,MIC,Escherichia coli 851E [36],0.016 µg/mL
same,MIC,[37],0.13 µg/mL
same,MIC,[38],0.13 µg/mL
same,MIC,[39],0.031 µg/mL
same,MIC,[40],0.5 µg/mL
same,MIC,[41],0.5 µg/mL
same,MIC,[42],8 µg/mL
same,MIC,Seratis marsecence 1826E,0.25 µg/mL
same,MIC,[43],0.063 µg/mL
same,MIC,[44],0.031 µg/mL
same,MIC,[45],0.031 µg/mL
same,MIC,Enterobacter cloacae P99 [46],≤ 0.008 µg/mL
same,MIC,[47],0.063 µg/mL
same,MIC,[48],0.031 µg/mL
same,MIC,Proteus vulgaris 6059,0.25 µg/mL
same,MIC,[49],0.031 µg/mL
same,antibacterial activity,test strains,superior antibacterial activity to the E-isomer
"CON=C1CN(c2nc3c(cc2F)c(=O)c(C(=O)O)cn3C2CC2)CC1CN (centres unmarked) [free form, 7-(4-aminomethyl-3-methyloxyiminopyrrolidin-1-yl)-1-cyclopropyl-6-fluoro-4-oxo-1,4-dihydro-1,8-naphthyridine-3-carboxylic acid]",antibacterial activity,test strains,excellent antibacterial activity
same,Water Solubility,[50]; pH 2,14.6
same,Water Solubility,[50]; pH 7,0.007
